Data: patent US4371544A, “Pharmaceutical composition containing 1,1,3,5-substituted biuret compound” (Taiho Pharmaceutical Company Limited, priority 1979, dated 1983)

Experiments:
[1] = tested on: ddy strain of male mice; assay: Acute toxicity (oral, mice, 7 days observation); type: in vivo
Method: (§1) Next, several tests for determining the pharmacological properties, in that acute toxicity, anti-pyretic activity, analgesic activity and anti-inflammatory activity of the present 1,1,3,5-substituted biuret compounds of the formula (1) were conducted and the test results are shown in Table (2). In the tests, each compounds to be tested was used as a suspension in 0.25% carboxymethylcellulose solution. Methods for testing are explained as follows:
The ddy strain of male mice (body weight, 20-25 g) were used as test animals. The mice were fasted overnight and the compound to be tested was administered orally. […] The lethal dose (mg/kg, body weight) of the test compound was determined in connection with the death number of mice/the number of mice tested. In Table 2, the values indicated with Δ marks are 50% lethal dose, LD50 (mg/kg, body weight).

[2] = tested on: ddy strain of male mice; assay: Analgesic activity, acetic acid-induced stretching method; type: in vivo, mouse (ddy); conditions: for Analgesic activity, acetic acid-induced stretching method, inhibitory ratio: 100 mg/kg oral, 1 hour before acetic acid; for inhibition in vivo at 200 mg/kg / inhibition in vivo at 100 mg/kg: Mus musculus, po, read-out: Analgesic activity, acetic acid-induced stretching method, inhibitory ratio
Method: as §1
According to the method reported by Koster et al., [Fed. Proc., Vol. 18, pp. 412 (1959)], the ddy strain of male mice (body weight, 20-25 g) were used as test animals. The mice were fasted overnight, 100 mg/kg body weight of the test compound was administered orally, then 1 hour after the administration, 0.2 ml of 0.7% acetic acid solution was injected intraperitoneally. The acetic acid-induced stretching symptom of mouse was observed. Analgesic activity of the test compound was calculated as the inhibitory ratio (%). In Table 2, the values in parentheses show the data obtained from the test by using the dosage other than 100 mg/kg body weight. Further, the values indicated with Δ marks show 50% effective dose, ED50 (mg/kg body weight).

[3] = tested on: ddy strain of male mice; assay: Analgesic activity, Haffner method (morphine threshold dose, clamp); type: in vivo, mouse (ddy); conditions: for inhibition in vivo at 100 mg/kg: read-out: Analgesic activity, Haffner method, inhibitory ratio
Method: as §1
According to the modified method reported by Fujimura et. al., [Bulletin of the Institute for Chemical Research, Kyoto University, No. 25, pp. 36 (1951)], the ddy strain of male mice (body weight, 20-25 g) were used as test animals. The mice were fasted overnight, 100 mg/kg body weight of the test compound was administered orally, then 45 minutes after the administration, the threshold amount (1.5-2.5 mg/kg body weight) of morphine hydrochloride was injected subcutaneously. Then 1-hour pain reaction of the mouse caused by a clamp was observed. Analgesic activity of the test compound was calculated as the inhibitory ratio (%). In Table 2, the values in parentheses show the data obtained from the test by using the dosage other than 100 mg/kg body weight. Further, the values indicated with Δ marks show 50% effective dose, ED50 (mg/kg body weight).

[4] = tested on: Wistar strain of male rats; assay: Anti-pyretic activity (dry-yeast-induced fever); type: in vivo, rat (Wistar); conditions: oral (dose not given), up to 4 hours after administration
Method: as §1
According to the method reported by Tanabe [Folia Pharmacologia Japonica, Vol. 73, pp. 803 (1977)], the Wistar strain of male rats (150-180 g, body weight) were used as test animals. The rats were fasted overnight, and 1 ml/100 g (body weight) of 10% dry-yeast suspension were subcutaneously injected on the back of the rats. Five hours after the injection, the test compound was administered orally, then the body temperature of the rat was measured at time sequences. Anti-pyretic activity of the test compound was determined as the FI (febril index) by integrating pyrogenetic curve up to 4 hours after the administration of the test compound with time, and indicated as inhibitory ratio (%) shown by the following formula, [formula]

[5] = Mus musculus, 100 mg/kg oral, 45 minutes before morphine hydrochloride
[6] = 100 mg/kg oral, 45 minutes before morphine hydrochloride

COc1ccccc1NC(=O)N(C)C(=O)N(C)C [compound 22, 1,1,3-Trimethyl-5-(2-methoxyphenyl)biuret]
Acute toxicity: death number of mice/number of mice tested ([1]; 1000 mg/kg oral): 0/4
Acute toxicity: death number of mice/number of mice tested ([1]; 2000 mg/kg oral): 2/4
Analgesic activity, acetic acid-induced stretching method, inhibitory ratio [2]: 37.5%
inhibition in vivo at 100 mg/kg [3, 5]: 50%
Anti-pyretic activity, inhibitory ratio (febril index) [4]: 13%

COc1ccc(NC(=O)N(C)C(=O)N(C)C)cc1OC [compound 24, 1,1,3-Trimethyl-5-(3,4-dimethoxyphenyl)biuret]
Acute toxicity: death number of mice/number of mice tested ([1]; 1000 mg/kg oral): 0/4
Acute toxicity: death number of mice/number of mice tested ([1]; 2000 mg/kg oral): 4/4
Analgesic activity, acetic acid-induced stretching method, inhibitory ratio [2]: 75%
Analgesic activity, Haffner method, inhibitory ratio [3, 6]: 62.5%
Anti-pyretic activity, inhibitory ratio (febril index) [4]: 18%

Cc1cccc(NC(=O)N(C)C(=O)N(C)C)c1C [compound 29, 1,1,3-Trimethyl-5-(2,3-dimethylphenyl)biuret]
Acute toxicity: death number of mice/number of mice tested ([1]; 1000 mg/kg oral): 1/4
Acute toxicity: death number of mice/number of mice tested ([1]; 2000 mg/kg oral): 4/4
Analgesic activity, Haffner method, inhibitory ratio [3, 6]: 25%
Anti-pyretic activity, inhibitory ratio (febril index) [4]: 40%

Cc1cccc(C)c1NC(=O)N(C)C(=O)N(C)C [compound 31, 1,1,3-Trimethyl-5-(2,6-dimethylphenyl)biuret]
Analgesic activity, acetic acid-induced stretching method, inhibitory ratio [2]: 75%
Analgesic activity, Haffner method, inhibitory ratio [3, 6]: 37.5%
Anti-pyretic activity, inhibitory ratio (febril index) [4]: 69%

Cc1c(Cl)cccc1NC(=O)N(C)C(=O)N(C)C [compound 32, 1,1,3-Trimethyl-5-(2-methyl-3-chlorophenyl)biuret]
Acute toxicity: death number of mice/number of mice tested ([1]; 1000 mg/kg oral): 1/4
Acute toxicity: death number of mice/number of mice tested ([1]; 2000 mg/kg oral): 4/4
Analgesic activity, acetic acid-induced stretching method, inhibitory ratio [2]: 75%
Analgesic activity, Haffner method, inhibitory ratio [3, 6]: 25%
Anti-pyretic activity, inhibitory ratio (febril index) [4]: 45%

CSc1ccc(NC(=O)N(C)C(=O)N(C)C)cc1 [compound 34, 1,1,3-Trimethyl-5-(4-methylthiophenyl)biuret]
Acute toxicity: death number of mice/number of mice tested ([1]; 1000 mg/kg oral): 0/4
Acute toxicity: death number of mice/number of mice tested ([1]; 2000 mg/kg oral): 4/4
Analgesic activity, acetic acid-induced stretching method, inhibitory ratio [2]: 50%

CCCN(C(=O)Nc1ccccc1)C(=O)N(C)C [compound 37, 1,1-Dimethyl-3-n-propyl-5-phenylbiuret]
Acute toxicity: death number of mice/number of mice tested ([1]; 2000 mg/kg oral): 0/4
Analgesic activity, acetic acid-induced stretching method, inhibitory ratio [2]: 37.5%
Analgesic activity, Haffner method, inhibitory ratio ([3]; 200 mg/kg oral): 62.5%
Anti-pyretic activity, inhibitory ratio (febril index) [4]: 12%

CCCCNC(=O)N(C(=O)N(C)C)c1ccccc1 [compound 40]
Acute toxicity: death number of mice/number of mice tested ([1]; 1000 mg/kg oral): 0/4
Acute toxicity: death number of mice/number of mice tested ([1]; 2000 mg/kg oral): 1/4
inhibition in vivo at 200 mg/kg [2]: 62.5%
inhibition in vivo at 100 mg/kg [3, 5]: 62.5%

CCCCN(C)C(=O)N(C)C(=O)Nc1ccccc1 [compound 48, 1,3-Dimethyl-1-n-butyl-5-phenylbiuret]
Acute toxicity: death number of mice/number of mice tested ([1]; 1000 mg/kg oral): 0/4
Acute toxicity: death number of mice/number of mice tested ([1]; 2000 mg/kg oral): 3/4
Analgesic activity, acetic acid-induced stretching method, inhibitory ratio [2]: 37.5%
Analgesic activity, Haffner method, inhibitory ratio [3, 6]: 25%
Anti-pyretic activity, inhibitory ratio (febril index) [4]: 35%

CNC(=O)N(C)C(=O)N(c1ccccc1)c1ccccc1 [compound 65, 1,1-Diphenyl-3,5-dimethylbiuret]
Acute toxicity: death number of mice/number of mice tested ([1]; 1000 mg/kg oral): 1/4
Acute toxicity: death number of mice/number of mice tested ([1]; 2000 mg/kg oral): 4/4
inhibition in vivo at 100 mg/kg [2]: 12.5%
inhibition in vivo at 100 mg/kg [3, 5]: 50%

CN(C(=O)Nc1ccccc1)C(=O)N1CCCC1 [compound 68, 1,1-Tetramethylene-3-methyl-5-phenylbiuret]
Acute toxicity: death number of mice/number of mice tested ([1]; mouse, in vivo): 2/4
inhibition in vivo at 100 mg/kg [2]: 75%
Anti-pyretic activity, inhibitory ratio (febril index) [4]: 24%

O=C(NC(=O)N1CCCCC1)Nc1ccccc1 [compound 69, 1,1-Pentamethylene-5-phenylbiuret]
Acute toxicity: death number of mice/number of mice tested ([1]; 2000 mg/kg oral): 0/4
inhibition in vivo at 200 mg/kg [2]: 50%
ED50 ([3]; Mus musculus, oral, Δ mark, range in parentheses): 115 mg/kg

CNC(=O)N(C)C(=O)N1CCOCC1 [compound 72, 1,1-(3-Oxapentamethylene)-3,5-dimethylbiuret]
Acute toxicity: death number of mice/number of mice tested ([1]; 2000 mg/kg oral): 0/4
inhibition in vivo at 100 mg/kg [2]: 50%
inhibition in vivo at 100 mg/kg [3, 5]: 25%
